From patent US10869850B2, “Nitrated-fatty acids modulation of type II diabetes” (University of Pittsburgh—Of the Commonwealth System of …, priority 2007, dated 2020) come the findings set out here.

Data set [1] has as its system WT mice. Nature of the data set: body weight of WT mice (FIG. 4). To be noted: course of the study (25 days).
Data set [2] concerns ob/ob mice. Nature of the data set: body weight of ob/ob mice (FIG. 4). To be noted: entire course of the study.
The test system of data set [3] is ob/ob mice. Put plainly: blood glucose levels in leptin-deficient diabetic ob/ob mice (FIG. 3). It counts as in vivo, mouse. To be noted: for blood glucose levels: over the course of the study, FIG. 3. The text has this: In a related vein, the invention encompasses a method for gauging the therapeutic efficacy of the composition as described above. This method involves obtaining at least two blood samples from a subject at different times during treatment and measuring the level of blood glucose in each sample.

Data set [4] deals with ob/ob mice. The note with it: mouse, in vivo.
Data set [5] can be described thus: analysis of mouse plasma after intravenous administration of nitro oleic acid. It counts as in vivo. How it is done: In contrast, the plasma levels for the β-oxidation products are highest at around 60 minutes.
Data set [6] has as its system WT mice. Put plainly: blood glucose levels in fed WT mice (FIG. 2). It counts as in vivo, mouse. The source says: Similar results are observed in experiments involving ob/ob mice.
Data set [7] relates to ob/ob mice. Put plainly: insulin sensitivity in ob/ob mice (FIG. 6). It counts as in vivo, mouse.
Data set [8] has as its system WT mice. Put plainly: insulin sensitivity in WT mice (FIG. 5). It counts as in vivo, mouse.
[9] abbreviates: following intravenous administration of nitro oleic acid.

“Also recorded” adds a separate entry of the source. Where two headings read alike, the source gives them in different places.

For the compound `CN(CCOc1ccc(CC2SC(=O)NC2=O)cc1)c1ccccn1` (stereo not drawn) [Rosiglitazone], the body weight entry in the data set on WT mice [1] is on record as “do not change over the course of the study”; in the data set with ob/ob mice [2], “steady increase in body weights”.

With “9- or 10-nitro octadecenoic acid [nitro oleic acid]”, in the data set with ob/ob mice [3] (day 21, FIG. 3), the “blood glucose levels on day 21 versus beginning of the study” value was “significantly lower on day 21 than at the beginning of the study”. Also, in the data set on ob/ob mice [3], the blood glucose levels result was “lower blood glucose levels; also recorded: effective in reducing blood glucose levels”. The “side-effects of weight gain and fluid retention” value with ob/ob mice [4] was “without the side-effects of weight gain and fluid retention”. Besides, in data set [5] (setting [9]), the “shape of plasma level curve as a function of time” value is “biphasic”. Further, the “time of peak plasma concentration” value in data set [5] (setting [9]) was “around 5 minutes”. Moreover, the “physiological fate (metabolism in vivo)” value in data set [5] (intravenous administration) is reported as “converted in-vivo, to its saturated analog, or can undergo β-oxidative cleavage”. Further, the “effectiveness in maintaining blood glucose levels compared with Rosiglitazone” value in the data set on WT mice [6] (WT mice) was “at least as effective as Rosiglitazone”. Moreover, the blood glucose level result in the data set on WT mice [6] (fed WT mice) is on record as “maintains a steady blood glucose level”. Moreover, in the data set with ob/ob mice [7], the insulin sensitivity entry was “improves insulin sensitivity”. The “blood glucose levels after administration of insulin” value in the data set on ob/ob mice [7] (FIG. 6) is reported as “substantial decrease in blood glucose levels”; with WT mice [8] it was “initial drop in blood glucose levels followed by an elevation to normal levels”.

In the case of `CCCCCCCC/C=C\CCCCCCCC(=O)O` [oleic acid, (Z)-octadec-9-enoic acid, reference compound], in the data set on ob/ob mice [3], the blood glucose levels entry is recorded as “blood glucose levels increased over the course of the study”. Besides, the body weight result with ob/ob mice [4] was “steady increase in body weights”.
